# Results taken from patent publication US20220340598A1, “PYRAZOLOPYRIDINONE COMPOUNDS” (Janssen Pharmaceutica NV, priority 2017, published 2022).
# Structures can show the parent of a compound that is named as a salt.
# Legend:
# [1] = biological target: T1, NIH/3T3 cells overexpressing FGFR3 WT-TACC3 fusion protein (Homo sapiens, UniProt P22607); experiment: NIH/3T3 FGFR3 WT-TACC3 cell proliferation assay; format: cell-based; details: 72-hr incubation, CellTiter Glo; read-out: NIH/3T3 FGFR3 WT-TACC3 CTG (IC50)
# T1 construct: fused on or other part: Q9Y6A5 (Transforming acidic coiled-coil-containing protein 3)
# Procedure: NIH/3T3 FGFR3 WT-TACC3 Cell Proliferation Assay
# (§1) In day 1, 90 μL of cell suspension (NIH/3T3 cells overexpressing FGFR3 WT-TACC3 fusion protein) (total 30,000 cells per well in growth medium (DMEM containing 1% Glutamax, 10% FBS and 1% Pen/Strep)) was seeded in a 96-well plate and then incubated overnight at 37° C. and 5% CO2. In day 2, 10 μL of growth medium containing 10-fold stock solution of testing compound was added into cell cultures (9 dose points with 4× serial dilution, starting with 10 μM, 0.1% DMSO final). After 72-hr incubation at 37° C. and 5% CO2, in day 5 a volume of 50 μL CellTiter Glo (CTG) reagent was added into cell-containing 96-well plate and the plate was incubated at room temperature for 10 minutes before RLUs (relative light unit) were measured on a microplate reader with luminescence detection module. The RLU value was normalized to survival % and concentration-response curve was plotted using Prism to calculate IC50 (M), pIC50 (−log IC50) and HillSlope value.
# [2] = biological target: T2, NIH/3T3 cells overexpressing FGFR3 V555M-TACC3 fusion protein (Homo sapiens, UniProt P22607, V555M, cells depend on it); experiment: NIH/3T3 FGFR3 V555M-TACC3 cell proliferation assay; format: cell-based; details: 72-hr incubation, CellTiter Glo; read-out: NIH/3T3 FGFR3 V555M-TACC3 CTG (IC50)
# T2 construct: fused on or other part: Q9Y6A5 (Transforming acidic coiled-coil-containing protein 3)
# Procedure: NIH/3T3 FGFR3 V555M-TACC3 Cell Proliferation Assay
# as §1, with “V555M-TACC3” for “WT-TACC3”
# T2 sequence (P22607 whole entry V555M, the tested form may be a part): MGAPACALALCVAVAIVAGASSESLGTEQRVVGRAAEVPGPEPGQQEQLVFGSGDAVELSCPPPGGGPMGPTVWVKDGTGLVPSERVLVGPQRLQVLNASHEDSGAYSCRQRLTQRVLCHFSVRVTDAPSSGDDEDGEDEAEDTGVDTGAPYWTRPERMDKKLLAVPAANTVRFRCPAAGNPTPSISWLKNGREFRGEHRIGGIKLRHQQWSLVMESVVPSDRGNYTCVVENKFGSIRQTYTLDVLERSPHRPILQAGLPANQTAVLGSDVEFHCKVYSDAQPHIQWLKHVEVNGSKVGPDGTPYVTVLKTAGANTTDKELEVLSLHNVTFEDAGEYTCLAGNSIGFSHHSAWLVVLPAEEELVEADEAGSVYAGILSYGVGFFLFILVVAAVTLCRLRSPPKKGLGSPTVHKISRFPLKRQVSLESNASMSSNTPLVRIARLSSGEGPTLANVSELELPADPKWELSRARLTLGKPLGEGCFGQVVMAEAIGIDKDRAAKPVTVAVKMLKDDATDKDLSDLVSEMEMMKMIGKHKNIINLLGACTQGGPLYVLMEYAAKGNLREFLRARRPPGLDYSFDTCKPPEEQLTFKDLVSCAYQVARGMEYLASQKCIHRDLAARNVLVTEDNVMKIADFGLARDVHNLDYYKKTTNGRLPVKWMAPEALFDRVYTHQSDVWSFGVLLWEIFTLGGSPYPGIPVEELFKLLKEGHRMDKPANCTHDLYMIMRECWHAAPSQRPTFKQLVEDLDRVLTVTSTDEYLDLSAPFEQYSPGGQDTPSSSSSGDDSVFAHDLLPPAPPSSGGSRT
# T1 sequence (P22607 whole entry, change not shown, the tested form may be a part): as the sequence (P22607 whole entry V555M, the tested form may be a part) above, with M555V counted along it
Compound,GI50 [1],GI50 [2]
"CCn1cc2[nH]c(=O)c(-c3nc4c(OC)cc(OC)cc4[nH]3)c(N[C@@H](C)c3ncccn3)c2n1 [Compound 31, (S)-6-(4,6-dimethoxy-1H-benzo[d]imidazol-2-yl)-2-ethyl-7-((1-(pyrimidin-2-yl)ethyl)amino)-2H-pyrazolo[4,3-b]pyridin-5(4H)-one]",,64.5 nM
"CCn1cc2[nH]c(=O)c(-c3nc4c(OC)cccc4[nH]3)c(N[C@@H](C)c3ncccn3)c2n1 [Compound 32, (S)-2-ethyl-6-(4-methoxy-1H-benzo[d]imidazol-2-yl)-7-((1-(pyrimidin-2-yl)ethyl)amino)-2H-pyrazolo[4,3-b]pyridin-5(4H)-one]",43.2 nM,69.6 nM
"CCOc1cc2[nH]c(-c3c(N[C@@H](C)c4ncccn4)c4nn(CC)cc4[nH]c3=O)nc2cc1OC [Compound 8, (S)-6-(6-ethoxy-5-methoxy-1H-benzo[d]imidazol-2-yl)-2-ethyl-7-((1-(pyrimidin-2-yl)ethyl)amino)-2H-pyrazolo[4,3-b]pyridin-5(4H)-one]",19.1 nM,23 nM
"COc1cnc2nc(-c3c(N[C@@H](C)c4ncccn4)c4nn(C)cc4[nH]c3=O)[nH]c2c1 [Compound 3, (S)-6-(6-methoxy-1H-imidazo[4,5-b]pyridin-2-yl)-2-methyl-7-((1-(pyrimidin-2-yl)ethyl)amino)-2H-pyrazolo[4,3-b]pyridin-5(4H)-one]",23.4 nM,32.6 nM
"CCOc1cc2[nH]c(-c3c(N[C@@H](C)c4ncccn4)c4nn(C)cc4[nH]c3=O)nc2cc1OC [Compound 7, (S)-6-(6-ethoxy-5-methoxy-1H-benzo[d]imidazol-2-yl)-2-methyl-7-((1-(pyrimidin-2-yl)ethyl)amino)-2,4-dihydro-5H-pyrazolo[4,3-b]pyridin-5-one]",6.03 nM,6.37 nM
"CC(C)[C@H](Nc1c(-c2nc3ncc(N(C)C)cc3[nH]2)c(=O)[nH]c2cn(C)nc12)c1ncccn1 (stereo in doubt) [Compound 23, (S*)-6-(6-(dimethylamino)-1H-imidazo[4,5-b]pyridin-2-yl)-2-methyl-7-((2-methyl-1-(pyrimidin-2-yl)propyl)amino)-2H-pyrazolo[4,3-b]pyridin-5(4H)-one 0.14 formate]",58 nM,37.3 nM
"COc1cc2[nH]c(-c3c(NC(c4ncccn4)C(C)C)c4nn(C)cc4[nH]c3=O)nc2cn1 (single isomer, unassigned) [Compound 18, (S*)-6-(6-methoxy-1H-imidazo[4,5-c]pyridin-2-yl)-2-methyl-7-((2-methyl-1-(pyrimidin-2-yl)propyl)amino)-2H-pyrazolo[4,3-b]pyridin-5(4H)-one]",71.9 nM,51.5 nM
"COc1cc(F)c2nc(-c3c(N[C@@H](C)c4ncccn4)c4nn(C)cc4[nH]c3=O)[nH]c2c1 [Compound 2, (S)-6-(4-fluoro-6-methoxy-1H-benzo[d]imidazol-2-yl)-2-methyl-7-((1-(pyrimidin-2-yl)-ethyl)amino)-2H-pyrazolo[4,3-b]pyridin-5(4H)-one]",18 nM,16.1 nM
"CCn1cc2[nH]c(=O)c(-c3nc4cc(OC)c(OC)cc4[nH]3)c(N[C@@H](C)c3ncccn3)c2n1 [Compound 37, (S)-6-(5,6-dimethoxy-1H-benzo[d]imidazol-2-yl)-2-ethyl-7-((1-(pyrimidin-2-yl)ethyl)amino)-2H-pyrazolo[4,3-b]pyridin-5(4H)-one]",16.8 nM,29.6 nM
"CCC(Nc1c(-c2nc3ccc(OC)cc3[nH]2)c(=O)[nH]c2cn(C)nc12)c1ncccn1 (single isomer, unassigned) [Compound 17, (R*)-6(6-Methoxy-1H-benzo[d]imidazol-2-yl)-2-methyl-7-((1-(pyrimidin-2-yl)propyl)amino)-2H-pyrazolo[4,3-b]pyridin-5(4H)-one]",27.6 nM,23.9 nM
"CCn1cc2[nH]c(=O)c(-c3nc4cc(OC)c(OCCOC)cc4[nH]3)c(N[C@@H](C)c3ncccn3)c2n1 [Compound 38, (S)-2-ethyl-6-(5-methoxy-6-(2-methoxyethoxy)-1H-benzo[d]imidazol-2-yl)-7-((1-(pyrimidin-2-yl)ethyl)amino)-2H-pyrazolo[4,3-b]pyridin-5(4H)-one]",,37.3 nM
"COc1cc(OC)c2nc(-c3c(N[C@@H](C)c4ncccn4)c4nn(C)cc4[nH]c3=O)[nH]c2c1 [Compound 29, (S)-6-(4,6-Dimethoxy-1H-benzo[d]imidazol-2-yl)-2-methyl-7-((1-(pyrimidin-2-yl)ethyl)amino)-2H-pyrazolo[4,3-b]pyridin-5(4H)-one]",16 nM,20.8 nM

# The remaining lines, values ahead:
GI50 [1],GI50 [2],Compound
3.19 nM,4.15 nM,"CCOc1cc2nc(-c3c(N[C@@H](C)c4ncccn4)c4nn(C)cc4[nH]c3=O)[nH]c2cc1OCC [Compound 53, (S)-6-(5,6-diethoxy-1H-benzo[d]imidazol-2-yl)-2-methyl-7-((1-(pyrimidin-2-yl)ethyl)amino)-2,4-dihydro-5H-pyrazolo[4,3-b]pyridin-5-one]"
28.7 nM,40.9 nM,"CCOc1ccc2nc(-c3c(N[C@@H](C)c4ncccn4)c4nn(CC)cc4[nH]c3=O)[nH]c2c1 [Compound 50, (S)-6-(6-ethoxy-1H-benzo[d]imidazol-2-yl)-2-ethyl-7-((1-(pyrimidin-2-yl)ethyl)amino)-2,4-dihydro-5H-pyrazolo[4,3-b]pyridin-5-one]"
,18.2 nM,"CCC(Nc1c(-c2nc3cc(OC)c(OC)cc3[nH]2)c(=O)[nH]c2cn(C)nc12)c1ncccn1 (single isomer, unassigned) [Compound 42, (S*)-6-(5,6-dimethoxy-1H-benzo[d]imidazol-2-yl)-2-methyl-7-((1-(pyrimidin-2-yl)propyl)amino)-2H-pyrazolo[4,3-b]pyridin-5(4H)-one]"
16.1 nM,18.8 nM,"CCOc1cc2nc(-c3c(N[C@@H](C)c4ncccn4)c4nn(CC)cc4[nH]c3=O)[nH]c2cc1OCC [Compound 52, (S)-6-(5,6-diethoxy-1H-benzo[d]imidazol-2-yl)-2-ethyl-7-((1-(pyrimidin-2-yl)ethyl)amino)-2H-pyrazolo[4,3-b]pyridin-5(4H)-one]"
,31.1 nM,"CCn1cc2[nH]c(=O)c(-c3nc4cc(OC)c(OC)cc4[nH]3)c(N[C@@H](C)c3ccccn3)c2n1 [Compound 51, (S)-6-(5,6-dimethoxy-1H-benzo[d]imidazol-2-yl)-2-ethyl-7-((1-(pyridin-2-yl)ethyl)amino)-2,4-dihydro-5H-pyrazolo[4,3-b]pyridin-5-one]"
31.7 nM,51.6 nM,"CCC(Nc1c(-c2nc3cc(OC)c(OC)cc3[nH]2)c(=O)[nH]c2cn(CC)nc12)c1ncccn1 (single isomer, unassigned) [Compound 44, (S*)-6-(5,6-dimethoxy-1H-benzo[d]imidazol-2-yl)-2-ethyl-7-((1-(pyrimidin-2-yl)propyl)amino)-2H-pyrazolo[4,3-b]pyridin-5(4H)-one]"
11.5 nM,21.6 nM,"CCn1cc2[nH]c(=O)c(-c3nc4ccc(OCCOC)cc4[nH]3)c(N[C@@H](C)c3ncccn3)c2n1 [Compound 54, (S)-2-ethyl-6-(6-(2-methoxyethoxy)-1H-benzo[d]imidazol-2-yl)-7-((1-(pyrimidin-2-yl)ethyl)amino)-2H-pyrazolo[4,3-b]pyridin-5(4H)-one]"
22.7 nM,27.6 nM,"COc1cc2nc(-c3c(NC(c4ncccn4)C4CC4)c4nn(C)cc4[nH]c3=O)[nH]c2cc1OC (single isomer, unassigned) [Compound 46, (S*)-7-((cyclopropyl(pyrimidin-2-yl)methyl)amino)-6-(5,6-dimethoxy-1H-benzo[d]imidazol-2-yl)-2-methyl-2H-pyrazolo[4,3-b]pyridin-5(4H)-one]"
18.4 nM,13.1 nM,"COc1cc2nc(-c3c(N[C@@H](C)c4ccccn4)c4nn(C)cc4[nH]c3=O)[nH]c2cc1OC [Compound 56, (S)-6-(5,6-dimethoxy-1H-benzo[d]imidazol-2-yl)-2-methyl-7-((1-(pyridin-2-yl)ethyl)amino)-2H-pyrazolo[4,3-b]pyridin-5(4H)-one]"
,29.6 nM,"(S)-6-(5,6-Dimethoxy-1H-benzo[d]imidazol-2-yl)-2-ethyl-7-((1-(pyrimidin-2-yl)ethyl)-amino)-2H-pyrazolo[4,3-b]pyridin-5(4H)-one [Compound 6]"
